Where a name gives a salt, the structure may show the parent alone.
Key:
[1] = test system: phenyl-p-quinone writhing in mice; assay: Analgesic activity: phenyl-p-quinone induced writhing in mice; type: in vivo, male T/O mice; settings: 1 hour prior to phenyl-p-quinone injection, observed 8 minutes, Litchfield and Wilcoxon; for ED50: Mus musculus, po, read-out: ED50 (mice prevented from writhing)
Experimental: Groups of 10 male T/O mice weighing between 20 and 25 g were injected intraperitoneally with 0.2 ml of a 0.02% solution of phenyl-p-quinone maintained at 37° C. […] Compounds were administered orally 1 hour prior to phenyl-p-quinone injection. The percentage of mice prevented from writhing in each group was plotted against dose of compound on log probit paper and the ED50 was calculated by the method of Litchfield, J. T. and Wilcoxon, F. (1949), J. Pharmac. exp. Ther., 96 (2), 99-113.

[2] = test system: carrageenin-induced oedema in rat paw; assay: Anti-inflammatory activity: standard rat paw carrageenin-induced oedema test; type: in vivo, male Wistar rats; settings: 1 hr before carrageenin
Experimental: The sodium salt of compound (1) was tested for anti-inflammatory activity by the standard rat paw carrageenin-induced oedema test:
Groups of 8 male Wistar rats weighing between 120 and 165 g. were dosed orally with the compound 1 hr. before the sub-cutaneous injection of 0.1 ml 1.5% carrageenin into a paw to induce oedema. The duration of the oedema was 3-31/2 hr. The significance of results was assessed by Student's `t` test.

Row | SMILES | ED50 [1] | ED50 (mice prevented from writhing) ([1]; oral, listed as No salt thereof) | % inhibition of oedema w.r.t. methylcellulose control ([2]; 1.67 mg/kg p.o., *0.001 < p < 0.01) | % inhibition of oedema w.r.t. methylcellulose control ([2]; 5 mg/kg p.o., **p < 0.001) | % inhibition of oedema w.r.t. methylcellulose control ([2]; 15 mg/kg p.o., **p < 0.001) | ED25 ([2]; rat, oral, read-out: ED25 (inhibition of oedema))
1 | Cn1c(CC(=O)O)cc(C(F)(F)F)c1C(=O)c1ccc(Cl)cc1 [(1), 5-p-Chlorobenzoyl-1-methyl-4-trifluoromethylpyrrole-2-acetic acid] | 1.75 mg/kg |  |  |  |  | 
2 | CC(=O)CCc1cc(C(F)(F)F)c(C(=O)c2ccc(Cl)cc2)n1C [(13), 4-[5'-(4"-chlorobenzoyl)-1'-methyl-4'-trifluoromethyl-2'-pyroyl]butan-2-one] | 25 mg/kg |  |  |  |  | 
3 | Cn1c(CC(=O)O)cc(C(F)(F)F)c1C(=O)c1ccc(Cl)cc1 [sodium salt of compound (1)] |  | 1.6 mg/kg p.o. | 18% | 25% | 30% | 5.5 mg/kg
